Experiments:
[1] = biological target: T1, Protein arginine N-methyltransferase 7 (Homo sapiens) (UniProt Q9NVM4); test: Selectivity interaction (Methyltransferase screen (radiometric assays, panel of 8 PRMTs, 21 protein lysine methyltransferases, 3 DNA methyltransferases, and one RNA methyltransferase)) EUB0000272b PRMT7
T1 sequence (whole entry): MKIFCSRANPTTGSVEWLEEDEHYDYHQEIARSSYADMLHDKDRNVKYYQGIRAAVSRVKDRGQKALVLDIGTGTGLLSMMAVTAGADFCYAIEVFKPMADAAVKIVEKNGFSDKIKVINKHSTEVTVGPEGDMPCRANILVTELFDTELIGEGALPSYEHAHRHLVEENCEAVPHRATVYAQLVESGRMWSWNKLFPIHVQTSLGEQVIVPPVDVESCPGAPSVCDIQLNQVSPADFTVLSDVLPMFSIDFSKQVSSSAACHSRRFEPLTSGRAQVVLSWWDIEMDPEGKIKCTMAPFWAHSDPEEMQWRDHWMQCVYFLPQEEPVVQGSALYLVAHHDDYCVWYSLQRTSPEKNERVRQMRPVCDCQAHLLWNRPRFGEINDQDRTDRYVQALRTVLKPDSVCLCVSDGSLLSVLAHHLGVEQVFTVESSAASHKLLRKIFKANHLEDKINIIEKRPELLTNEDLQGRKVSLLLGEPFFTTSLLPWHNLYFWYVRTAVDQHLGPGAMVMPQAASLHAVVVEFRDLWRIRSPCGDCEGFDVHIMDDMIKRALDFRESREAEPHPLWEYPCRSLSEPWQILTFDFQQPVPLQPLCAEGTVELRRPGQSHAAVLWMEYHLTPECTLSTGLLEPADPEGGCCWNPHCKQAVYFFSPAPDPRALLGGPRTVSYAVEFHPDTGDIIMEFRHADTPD

hERG (KCNH2) = hERG (KCNH2) (Homo sapiens, UniProt Q12809); test: Selectivity interaction (Panel of kinases, GPCRs, ion channels and transporters (enzymatic assay)) EUB0000266bCl KCNH2
Sequence of hERG (KCNH2) (Q12809 whole entry): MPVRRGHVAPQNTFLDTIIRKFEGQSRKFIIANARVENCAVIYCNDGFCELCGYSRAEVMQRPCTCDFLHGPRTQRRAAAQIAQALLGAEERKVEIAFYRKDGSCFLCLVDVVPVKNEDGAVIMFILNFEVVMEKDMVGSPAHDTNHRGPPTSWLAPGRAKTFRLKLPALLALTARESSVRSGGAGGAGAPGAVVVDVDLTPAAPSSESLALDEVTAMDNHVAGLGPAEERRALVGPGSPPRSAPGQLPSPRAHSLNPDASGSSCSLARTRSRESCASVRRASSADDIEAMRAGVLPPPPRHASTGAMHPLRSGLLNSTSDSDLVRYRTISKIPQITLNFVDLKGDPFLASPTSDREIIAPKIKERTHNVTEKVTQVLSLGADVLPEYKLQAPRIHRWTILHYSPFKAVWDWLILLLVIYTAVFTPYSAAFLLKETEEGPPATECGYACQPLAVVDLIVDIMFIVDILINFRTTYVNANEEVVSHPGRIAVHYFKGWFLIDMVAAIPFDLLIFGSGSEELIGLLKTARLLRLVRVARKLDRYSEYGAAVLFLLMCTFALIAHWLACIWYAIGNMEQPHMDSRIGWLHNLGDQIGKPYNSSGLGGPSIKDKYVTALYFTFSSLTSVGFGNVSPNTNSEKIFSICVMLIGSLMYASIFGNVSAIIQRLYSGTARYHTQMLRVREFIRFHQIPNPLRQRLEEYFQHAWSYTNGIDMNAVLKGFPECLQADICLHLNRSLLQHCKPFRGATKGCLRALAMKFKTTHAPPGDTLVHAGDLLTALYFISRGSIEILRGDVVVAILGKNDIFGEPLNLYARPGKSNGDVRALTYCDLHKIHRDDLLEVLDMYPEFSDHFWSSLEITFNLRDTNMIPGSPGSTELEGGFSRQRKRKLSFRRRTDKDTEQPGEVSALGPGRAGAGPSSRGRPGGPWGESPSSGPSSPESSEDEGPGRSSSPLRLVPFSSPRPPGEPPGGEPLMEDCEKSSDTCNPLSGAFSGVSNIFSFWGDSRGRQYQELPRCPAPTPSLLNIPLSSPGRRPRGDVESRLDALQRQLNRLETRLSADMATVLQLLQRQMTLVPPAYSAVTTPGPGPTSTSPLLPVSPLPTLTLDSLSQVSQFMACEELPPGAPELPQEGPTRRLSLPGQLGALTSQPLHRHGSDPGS

[2] = biological target: T2, Myosin light chain kinase family member 4 (Homo sapiens) (UniProt Q86YV6); test: Selectivity interaction (KinomeScan (DiscoverX)) EUB0000666a MYLK4; conditions: at 10 µM
T2 sequence (whole entry): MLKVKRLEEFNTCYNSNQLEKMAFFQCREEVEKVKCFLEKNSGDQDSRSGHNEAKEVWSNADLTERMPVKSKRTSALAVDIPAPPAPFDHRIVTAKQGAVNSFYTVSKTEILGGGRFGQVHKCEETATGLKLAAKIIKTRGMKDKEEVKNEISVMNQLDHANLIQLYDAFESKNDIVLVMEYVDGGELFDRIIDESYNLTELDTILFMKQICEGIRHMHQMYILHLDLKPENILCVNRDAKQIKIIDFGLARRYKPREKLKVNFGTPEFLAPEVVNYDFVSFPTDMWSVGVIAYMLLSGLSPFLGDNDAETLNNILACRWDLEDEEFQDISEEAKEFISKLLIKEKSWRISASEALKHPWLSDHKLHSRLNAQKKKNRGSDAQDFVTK

[3] = biological target: T3, Aurora kinase C (Homo sapiens) (UniProt Q9UQB9); test: Selectivity interaction (KinomeScan (DiscoverX)) EUB0000618a AURKC; conditions: at 10 µM
T3 sequence (whole entry): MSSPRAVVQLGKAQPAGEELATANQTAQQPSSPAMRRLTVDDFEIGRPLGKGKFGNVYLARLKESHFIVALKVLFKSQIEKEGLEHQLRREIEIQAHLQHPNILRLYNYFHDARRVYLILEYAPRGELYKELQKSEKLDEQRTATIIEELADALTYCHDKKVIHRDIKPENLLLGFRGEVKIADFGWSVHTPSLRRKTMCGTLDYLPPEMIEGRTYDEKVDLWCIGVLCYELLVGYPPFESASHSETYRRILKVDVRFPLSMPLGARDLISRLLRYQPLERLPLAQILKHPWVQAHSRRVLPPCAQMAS

[4] = biological target: Serine/threonine-protein kinase 25 (Homo sapiens) (UniProt O00506); test: Selectivity interaction (Ambit KINOMEscan and KiNATiv profiling in Jurkat cells) EUB0000090b STK25; format: cell-based; conditions: at 1 µM
Sequence of Serine/threonine-protein kinase 25 (Homo sapiens) (O00506 whole entry, looked up): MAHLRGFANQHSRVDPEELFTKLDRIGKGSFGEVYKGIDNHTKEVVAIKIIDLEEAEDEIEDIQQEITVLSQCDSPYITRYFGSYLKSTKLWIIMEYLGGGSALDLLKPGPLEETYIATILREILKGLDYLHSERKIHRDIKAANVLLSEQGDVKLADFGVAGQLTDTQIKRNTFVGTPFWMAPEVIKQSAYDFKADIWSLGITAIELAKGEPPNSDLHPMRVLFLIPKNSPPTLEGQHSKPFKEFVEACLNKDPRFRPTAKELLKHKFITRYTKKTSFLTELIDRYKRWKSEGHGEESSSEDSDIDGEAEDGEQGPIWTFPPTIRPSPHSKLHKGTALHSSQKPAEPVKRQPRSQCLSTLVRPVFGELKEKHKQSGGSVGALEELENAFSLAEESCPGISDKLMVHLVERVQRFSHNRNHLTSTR

[5] = biological target: T4, Serine/threonine-protein kinase LATS2 (Homo sapiens) (UniProt Q9NRM7); test: Selectivity interaction (ActivX KiNativ screen (ex vivo kinase selectivity in human PBMCs)) EUB0001619a LATS2; format: cell-based; conditions: PBMC, at 1 µM
T4 sequence (whole entry): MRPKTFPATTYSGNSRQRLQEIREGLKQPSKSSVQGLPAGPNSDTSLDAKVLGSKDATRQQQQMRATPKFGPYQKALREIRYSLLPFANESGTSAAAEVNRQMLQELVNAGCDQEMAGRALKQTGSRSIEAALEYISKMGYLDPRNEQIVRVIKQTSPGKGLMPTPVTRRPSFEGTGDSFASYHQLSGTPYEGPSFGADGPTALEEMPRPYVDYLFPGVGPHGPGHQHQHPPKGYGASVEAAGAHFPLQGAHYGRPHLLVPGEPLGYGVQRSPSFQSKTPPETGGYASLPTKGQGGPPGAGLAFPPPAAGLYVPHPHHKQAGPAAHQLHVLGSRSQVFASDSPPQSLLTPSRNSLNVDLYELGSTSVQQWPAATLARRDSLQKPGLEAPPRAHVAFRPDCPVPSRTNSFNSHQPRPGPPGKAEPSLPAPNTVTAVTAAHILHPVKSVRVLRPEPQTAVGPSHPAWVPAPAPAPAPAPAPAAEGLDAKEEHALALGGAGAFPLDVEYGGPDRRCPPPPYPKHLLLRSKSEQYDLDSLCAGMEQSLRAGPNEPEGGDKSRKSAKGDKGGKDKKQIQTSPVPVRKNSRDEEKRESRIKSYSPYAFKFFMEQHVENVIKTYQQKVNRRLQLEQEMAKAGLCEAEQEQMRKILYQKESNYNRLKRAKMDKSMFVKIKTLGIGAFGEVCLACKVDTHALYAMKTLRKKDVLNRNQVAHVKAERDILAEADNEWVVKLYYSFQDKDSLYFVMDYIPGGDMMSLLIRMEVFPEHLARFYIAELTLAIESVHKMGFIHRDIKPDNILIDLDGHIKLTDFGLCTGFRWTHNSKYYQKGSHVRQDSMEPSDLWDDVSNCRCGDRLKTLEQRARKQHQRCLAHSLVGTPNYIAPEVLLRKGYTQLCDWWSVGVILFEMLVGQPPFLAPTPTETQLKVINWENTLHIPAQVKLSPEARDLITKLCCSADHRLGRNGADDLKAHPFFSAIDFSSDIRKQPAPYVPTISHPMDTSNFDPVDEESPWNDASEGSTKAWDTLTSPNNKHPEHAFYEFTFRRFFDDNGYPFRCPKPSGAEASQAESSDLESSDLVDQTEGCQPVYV

**Q.** With Cc1cc(C)cc([C@H]2c3cc(C)ccc3NC(=O)CN2C(=O)c2ccc(Br)s2)c1 as the compound, how does the % of activity ([1]; at 1 µM) read?
**A.** 97.7%

**Q.** What about the % of activity ([1]; at 10 µM) of the same compound?
**A.** 100%

**Q.** CCn1c(-c2nc3cc(C(=O)N4CCCC(N)C4)ccc3n2C)cc2ccccc21 (configuration not stated) was tested. Which XC50 (hERG (KCNH2)) did it give?
**A.** 6.31 µM

**Q.** For O=C(NOC[C@H](O)CO)c1ccc(F)c(F)c1Nc1ccc(I)cc1F, which % of control [2] is on record?
**A.** 100%

**Q.** With O[C@H]1CC[C@H](Nc2ncc3nc(Nc4c(F)cc(F)cc4F)n([C@H]4CCOC4)c3n2)CC1 as the compound, how does the % of control [3] read?
**A.** 100%

**Q.** CN(C)C/C=C/C(=O)Nc1ccc(C(=O)N2CCCC(Nc3ncc(Cl)c(-c4c[nH]c5ccccc45)n3)C2)cc1 (configuration not stated) was tested. Which % of control [4] did it give?
**A.** 77%

**Q.** Which % of inhibition [5] does the source give for N#Cc1cccc(-c2c[nH]c3ncnc(N4CCOCC4)c23)c1 here?
**A.** 16%

From ChEMBL document CHEMBL5465560, “Selectivity Literature for EUbOPEN Chemogenomic Library” (2024)
